Laboratory results: patent US11851426B2, “Bicyclic amines as CDK2 inhibitors” (Incyte Corporation, priority 2019, dated 2023)

Each molecule was assayed against CDK2/Cyclin E1 (Homo sapiens (Human), UniProt P24941) (assay: CDK2/Cyclin E1 HTRF enzyme activity assay). Details: 1 mM ATP; CDK2/Cyclin E1 0.25 nM; 60 minutes at room temperature.
Format: biochemical
Procedure, shortened: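 Full-length GST-CDK2 co-expressed with FLAG-Cyclin E1 (baculovirus), 0.25 nM, reacted with 50 nM ULight-4E-BP1 (Thr37/46) peptide at 50 μM or 1 mM ATP in HEPES pH 7.5 buffer, 60 min, room temperature. EDTA plus Eu-anti-phospho-4E-BP1 antibody stopped the reaction; HTRF read after 1 h; IC50 from three- or four-parameter fits.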
With `C[C@@H]1CN(S(=O)(=O)C2CC2)CC[C@@H]1Nc1nc2cnc(-c3cn[nH]c3)c(OC3CCOCC3)n2n1` [Example 92, N-((3R,4S)-1-(Cyclopropylsulfonyl)-3-methylpiperidin-4-yl)-6-(1H-pyrazol-4-yl)-5-((tetrahydro-2H-pyran-4-yl)oxy)-[1,2,4]triazolo[1,5-a]pyrazin-2-amine] the IC50 was no more than 0.02 µM.
Molecule `CS(=O)(=O)N1CCC(Nc2nc3c(N4CCC(F)CC4)c(-c4cn[nH]c4)ccn3n2)CC1` [Example 23, 8-(4-fluoropiperidin-1-yl)-N-(1-(methylsulfonyl)piperidin-4-yl)-7-(1H-pyrazol-4-yl)-[1,2,4]triazolo[1,5-a]pyridin-2-amine] has an IC50 of no more than 0.02 µM.
Molecule `CC(C)Oc1c(-c2cn[nH]c2)ccc2nc(N[C@H]3CCN(S(C)(=O)=O)C[C@H]3C)nn12` [Example 68, 5-Isopropoxy-N-((3R,4S)-3-methyl-1-(methylsulfonyl)piperidin-4-yl)-6-(1H-pyrazol-4-yl)-[1,2,4]triazolo[1,5-a]pyridin-2-amine] has an IC50 of no more than 0.02 µM.
`C[C@@H]1CN(S(C)(=O)=O)CC[C@@H]1Nc1nc2ccc(-c3cn[nH]c3)c(OC3CCOCC3)n2n1` [Example 98, N-((3R,4S)-3-Methyl-1-(methylsulfonyl)piperidin-4-yl)-6-(1H-pyrazol-4-yl)-5-((tetrahydro-2H-pyran-4-yl)oxy)-[1,2,4]triazolo[1,5-a]pyridin-2-amine] showed an IC50 of no more than 0.02 µM.
`CS(=O)(=O)N1CCC(Nc2nc3cnc(-c4cn[nH]c4)c(OC4CCC4)n3n2)CC1` [Example 117, 5-Cyclobutoxy-N-(1-(methylsulfonyl)piperidin-4-yl)-6-(1H-pyrazol-4-yl)-[1,2,4]triazolo[1,5-a]pyrazin-2-amine] was tested, and the IC50 was no more than 0.02 µM.
`CS(=O)(=O)N1CCC(Nc2nc3cnc(-c4cn[nH]c4)c(OCC4(C(F)(F)F)CCC4)n3n2)CC1` [Example 120, N-(1-(Methylsulfonyl)piperidin-4-yl)-6-(1H-pyrazol-4-yl)-5-((1-(trifluoromethyl)cyclobutyl)methoxy)-[1,2,4]triazolo[1,5-a]pyrazin-2-amine] showed an IC50 of no more than 0.02 µM.
For `[2H]C(C)(C)Oc1c(-c2cn[nH]c2)ncc2nc(NC3CCN(S(C)(=O)=O)CC3)nn12` [Example 142, N-(1-(Methylsulfonyl)piperidin-4-yl)-5-((propan-2-yl-2-d)oxy)-6-(1H-pyrazol-4-yl)-[1,2,4]triazolo[1,5-a]pyrazin-2-amine], the IC50 was no more than 0.02 µM.
With `CS(=O)(=O)N1CCC(Nc2nc3cnc(-c4cn[nH]c4)c(N4C5CCC4CC5)n3n2)CC1` [Example 135, 5-(7-Azabicyclo[2.2.1]heptan-7-yl)-N-(1-(methylsulfonyl)piperidin-4-yl)-6-(1H-pyrazol-4-yl)-[1,2,4]triazolo[1,5-a]pyrazin-2-amine] the IC50 was no more than 0.02 µM.
Work on `CC(C)Oc1c(-c2cn[nH]c2)ncn2nc(N[C@H]3CCN(S(=O)(=O)CCN4CCCC4)C[C@H]3C)nc12` [Example 38, 8-isopropoxy-N-((3R,4S)-3-methyl-1-((2-(pyrrolidin-1-yl)ethyl)sulfonyl)piperidin-4-yl)-7-(1H-pyrazol-4-yl)-[1,2,4]triazolo[1,5-c]pyrimidin-2-amine] yielded an IC50 of no more than 0.02 µM.
Molecule `C[C@@H]1CN(S(=O)(=O)c2cn(C)cn2)CC[C@@H]1Nc1nc2cnc(-c3cn[nH]c3)c(OC3CCC3)n2n1` [Example 95, 5-Cyclobutoxy-N-((3R,4S)-3-methyl-1-((1-methyl-1H-imidazol-4-yl)sulfonyl)piperidin-4-yl)-6-(1H-pyrazol-4-yl)-[1,2,4]triazolo[1,5-a]pyrazin-2-amine] has an IC50 of no more than 0.02 µM.
With `CC(C)Oc1c(-c2cn[nH]c2)ncn2nc(N[C@H]3CCN(S(=O)(=O)CCCN4CCCC4)C[C@H]3C)nc12` [Example 59, 8-Isopropoxy-N-((3R,4S)-3-methyl-1-((3-(pyrrolidin-1-yl)propyl)sulfonyl)piperidin-4-yl)-7-(1H-pyrazol-4-yl)-[1,2,4]triazolo[1,5-c]pyrimidin-2-amine] the IC50 was no more than 0.02 µM.
For `C[C@@H]1CN(S(C)(=O)=O)CC[C@@H]1Nc1nc2cnc(-c3cn[nH]c3)c(OC3CCOC(C(F)(F)F)C3)n2n1` (stereo partly drawn) [Example 113, N-((3R,4S)-3-Methyl-1-(methylsulfonyl)piperidin-4-yl)-6-(1H-pyrazol-4-yl)-5-((2-(trifluoromethyl)tetrahydro-2H-pyran-4-yl)oxy)-[1,2,4]triazolo[1,5-a]pyrazin-2-amine], the IC50 was no more than 0.02 µM.
`CC1CCN(c2c(-c3cn[nH]c3)ncn3nc(NC4CCN(S(C)(=O)=O)CC4)nc23)CC1` [Example 34, 8-(4-methylpiperidin-1-yl)-N-(1-(methylsulfonyl)piperidin-4-yl)-7-(1H-pyrazol-4-yl)-[1,2,4]triazolo[1,5-c]pyrimidin-2-amine] showed an IC50 of no more than 0.02 µM.
`CC(C)Oc1c(-c2cn[nH]c2)ncn2nc(NC3CCN(S(C)(=O)=O)CC3)nc12` [Example 14, 8-isopropoxy-N-(1-(methylsulfonyl)piperidin-4-yl)-7-(1H-pyrazol-4-yl)-[1,2,4]triazolo[1,5-c]pyrimidin-2-amine] gave an IC50 of no more than 0.02 µM.
With `CC(C)Oc1c(-c2cn[nH]c2)ccc2nc(N[C@H]3CCN(S(=O)(=O)C4CC4)C[C@H]3C)nn12` [Example 97, N-((3R,4S)-1-(Cyclopropylsulfonyl)-3-methylpiperidin-4-yl)-5-isopropoxy-6-(1H-pyrazol-4-yl)-[1,2,4]triazolo[1,5-a]pyridin-2-amine] the IC50 was no more than 0.02 µM.
`C[C@@H]1CN(S(C)(=O)=O)CC[C@@H]1Nc1nc2c(OC3CCC(F)(F)CC3)c(-c3cn[nH]c3)ccn2n1` [Example 39, 8-((4,4-difluorocyclohexyl)oxy)-N-((3R,4S)-3-methyl-1-(methylsulfonyl)piperidin-4-yl)-7-(1H-pyrazol-4-yl)-[1,2,4]triazolo[1,5-a]pyridin-2-amine] showed an IC50 of no more than 0.02 µM.
Work on `CCS(=O)(=O)N1CC[C@H](Nc2nc3c(OC(C)C)c(-c4cn[nH]c4)ncn3n2)[C@H](C)C1` [Example 54, N-((3R,4S)-1-(Ethylsulfonyl)-3-methylpiperidin-4-yl)-8-isopropoxy-7-(1H-pyrazol-4-yl)-[1,2,4]triazolo[1,5-c]pyrimidin-2-amine] yielded an IC50 of no more than 0.02 µM.
`CC(C)Oc1c(-c2cn[nH]c2)ccn2nc(N[C@H]3CCN(S(C)(=O)=O)C[C@H]3C)nc12` [Example 43, 8-isopropoxy-N-((3R,4S)-3-methyl-1-(methylsulfonyl)piperidin-4-yl)-7-(1H-pyrazol-4-yl)-[1,2,4]triazolo[1,5-a]pyridin-2-amine] gave an IC50 of no more than 0.02 µM.
`CCCOc1c(-c2cn[nH]c2)ncc2nc(N[C@H]3CCN(S(C)(=O)=O)C[C@H]3C)nn12` [Example 102, N-((3R,4S)-3-Methyl-1-(methylsulfonyl)piperidin-4-yl)-5-propoxy-6-(1H-pyrazol-4-yl)-[1,2,4]triazolo[1,5-a]pyrazin-2-amine] gave an IC50 of no more than 0.02 µM.
`CS(=O)(=O)N1CCC(Nc2nc3c(-c4cccc(C(F)(F)F)c4)c(-c4cn[nH]c4)ncn3n2)CC1` [Example 35, N-(1-(methylsulfonyl)piperidin-4-yl)-7-(1H-pyrazol-4-yl)-8-(3-(trifluoromethyl)phenyl)-[1,2,4]triazolo[1,5-c]pyrimidin-2-amine] showed an IC50 of no more than 0.02 µM.
`CS(=O)(=O)N1CCC(Nc2nc3cnc(-c4cn[nH]c4)c(OC4CC(F)(F)C4)n3n2)CC1` [Example 118, 5-(3,3-Difluorocyclobutoxy)-N-(1-(methylsulfonyl)piperidin-4-yl)-6-(1H-pyrazol-4-yl)-[1,2,4]triazolo[1,5-a]pyrazin-2-amine] was tested, and the IC50 was no more than 0.02 µM.
